Tests used:
Assay type in all cases: cell-based
E. coli [1] = test: ART strip (Antibiotics Resistance Test), iodometric detection of beta-lactam hydrolysis by un-cultured urine sample pellets
Protocol: (§1) Filter paper (Whatman no. 3) strips impregnated with 50 mM potassium iodide and 10 mM iodine in 0.75% aqueous starch solution were divided into 6 test areas. Appropriate antibiotic substrates were prepared at a final concentration of 20 mg/mL. Each test area was impregnated with 30 μL of the appropriate solution. The strips were then dried in a lyophilizer and stored with a desiccant at 4° C.
(§2) One mL urine samples were spun 2 minutes at 3000 RPM in room temperature. Supernatants were removed and aliquots of the resulting pellets were streaked on standard slides.
(§3) The product of the enzymatic degradation of a beta-lactam antibiotic removes the iodine from the ART strip and causes local decolorization in that strip. Typically, a detection kit consists of two slides, as illustrated in FIG. 2. The bottom slide is streaked with the sample to be tested. The top slide (lid) carries the ART strip which is activated when each test area on the strip receives 25 μL of the activator solution consisting of 40 mg gelatin in 100 mL phosphate buffer pH 6.5. The test starts when the top slide carrying the freshly activated ART strip contacts the bottom slide carrying the sample. It may be carried out at ambient temperatures but will be accelerated by warming-up to 41° C. […] Result is confirmed if no decolorization took place in the absence of the bacteria (the background of that test area) or in the absence of the antibiotic (as in Test Area 2 in FIG. 1).
(§4) One mL urine sample pellets were collected as described in Example 1 and each streaked on a slide. The strip of the invention (termed ART for Antibiotics Resistance Test) was used to test for beta-lactamase and its ability to degrade Ceftazidime [Caz], Ceftriaxone [Cro], Cefuroxime [Cxm] and Ampicillin [Amp]. The strip, containing iodine and starch and divided to areas containing each of the abovementioned antibiotics, and attached to a plain slide, was activated as shown above, and placed on the streaked slide. After 5-15 minutes at 33° C.-38° C. the slide was scanned and recorded.

Acinetobacter sp. = test: ART strip test on urine sample pellets; settings: 1 sample (r29)
Protocol: as §1, §2, §3, §4

Citr. koseri = test: ART strip test on urine sample pellets; settings: 2 samples (r25)
Protocol: as §1, §2, §3, §4

E. faecalis = test: ART strip test on urine sample pellets; settings: 4 samples (r27)
Protocol: as §1, §2, §3, §4

K. oxytoca = test: ART strip test on urine sample pellets
Protocol: as §1, §2, §3, §4

K. pneumoniae [2] = test: ART strip test on urine sample pellets
Protocol: as §1, §2, §3, §4

Morg. morganii [3] = test: ART strip test on urine sample pellets
Protocol: as §1, §2, §3, §4

Prot. mirabilis [4] = test: ART strip test on urine sample pellets
Protocol: as §1, §2, §3, §4

Staphylococcus sp. = test: ART strip test on urine sample pellets
Protocol: as §1, §2, §3, §4

Str. agalactiae = test: ART strip test on urine sample pellets; settings: 3 samples (r34)
Protocol: as §1, §2, §3, §4

Prot. mirabilis [5] = test: conventional lab procedures [CLP], resistance of bacterial isolates; settings: 1 sample (r18)
Source text: (§5) The same specimens were examined using conventional lab procedures [CLP] that determined the identity of the bacterial isolates and their resistance to the above beta-lactams.

Citrobacter freundii = test: modular antibiotic resistance detection kit on urine sample pellets; settings: profile r23, ESBL Pos; also: key: R = resistant; S = sensitive
Protocol: (§6) A modular antibiotic resistance detection kit offers more flexibility in testing different resistance profiles. In the modular detection kit exemplified here, the ART strip is replaced by filter paper segments glued to a slide, each segment impregnated with a single antibiotic.
(§7) Specifically, pathogen samples were tested using filter papers impregnated with the following beta-lactam antibiotics: ampicillin [Amp], augmentin (a combination of amoxicillin and clavulanic acid) [AMC], clavulanic acid (Reduced Resistance test) [RR], ceftazidime [Caz] and either imipenem or meropenem [CPM]. The impregnation details of the fragments were as in the previous Examples.
(§8) Filter paper (Whatman no. 3] strips impregnated with Assay Reagent solution were used as “indicator strips”. An indicator strip was attached to the plain top slide as shown in FIG. 2. Aliquots of the pellets of the urine samples tested were placed on each of the segments. The test was started by placing the activated indicator-strip-slide, on the modular antibiotic slide. The scan results obtained after 5-10 min at 38° C. are illustrated schematically in FIG. 2 where all segments, except for the negative (no antibiotic) control, show decolorization indicating resistance to each antibiotic in that array.
(§9) Samples resistant to ceftazidime but affected by clavulanic acid were assumed to contain extended spectrum beta lactamases (ESBLs). The ‘Confirmed’ detections column summarizes the number of CLP-validated results out of the total findings recorded.

E. coli [6] = test: as above
Protocol: as §6, §7, §8, §9

K. pneumoniae [7] = test: as above
Protocol: as §6, §7, §8, §9

Proteus mirabilis = test: as above
Protocol: as §6, §7, §8, §9

K. pneumoniae [8] = test: conventional lab procedures [CLP], resistance of bacterial isolates; settings: profile r19 of Table 2
Source text: as §5

Morg. morganii [9] = test: as above; settings: 1 sample (r23)
Source text: as §5

E. coli [10] = test: as above; settings: profile r9 of Table 2
Source text: as §5

[11] = test system: carbapenem-resistant Enterobacteriaceae; test: modular kit for detection of CRE in urine sample; settings: CRE-containing urine sample pellets; 12 minutes at 38° C.
Protocol: The kit constructed as a twin-slide [as illustrated by FIG. 1] carries an “OCTET” strip impregnated [as in Example 1] with an array of eight beta-lactam antibiotics and 1 non-beta-lactam control [S].
To illustrate the life-saving potential of the proposed technology which eliminates delays in diagnosis of carbapenem-resistant members of the Enterobacteriaceae family (CRE), a CRE sample was analyzed using the invention's modular kit, containing ampicillin, ceftazidime, augmentin, cefotaxime, imipenem, cefuroxime, meropenem and ceftriaxone as beta-lactamase substrates and a non-beta-lactam antibiotic, served as a negative control.
Filter paper segments were glued to a slide, each segment impregnated with a single antibiotic of the abovementioned antibiotics and streaked with carbapenem-resistant Enterobacteriaceae-containing urine sample pellets, prepared as described in Examples 1 to 3. The slide was contacted with indicator strips attached to a slide.

[12] = 28 samples (r6), 5-15 minutes at 33° C.-38° C.
[13] = E. coli (16 samples), profile r6, ESBL Neg, 5-10 min at 38° C. As to CLP result differing from kit (in brackets): key: R = resistant; S = sensitive.
[14] = K. pneumoniae (5 samples), profile r17, ESBL Pos
[15] = K. pneumoniae, profile r18, ESBL Pos
[16] = K. pneumoniae, profile r20, ESBL Pos
[17] = K. pneumoniae, profile r21, ESBL Neg
[18] = Proteus mirabilis (3 samples), profile r25, ESBL Pos
[19] = Proteus mirabilis, profile r26, ESBL Pos
[20] = Proteus mirabilis, profile r27, ESBL Neg

| Molecule | resistance profile predicted by ART (E. coli [1]; 3 samples (r8), MDR) | resistance profile predicted by ART (E. coli [1]; 12 samples (r7)) | resistance profile predicted by ART (E. coli [1]; [12]) | resistance profile predicted by ART (Acinetobacter sp.) | resistance found with modular kit (Citrobacter freundii) | resistance found with modular kit (E. coli [6]; [13]) | resistance found with modular kit (E. coli [6]; E. coli, profile r9, ESBL Neg) | resistance found with modular kit (E. coli [6]; E. coli, profile r10, ESBL Neg) | resistance found with modular kit (E. coli [6]; E. coli, profile r11, ESBL Neg) | resistance found with modular kit (E. coli [6]; E. coli, profile r12, ESBL Neg) | resistance found with modular kit (E. coli [6]; E. coli, profile r14, ESBL Pos) | resistance found with modular kit (E. coli [6]; E. coli, profile r15, ESBL Pos) | resistance found with modular kit (K. pneumoniae [7]; [14]) | resistance found with modular kit (K. pneumoniae [7]; [15]) | resistance found with modular kit (K. pneumoniae [7]; K. pneumoniae, profile r19) | resistance found with modular kit (K. pneumoniae [7]; [16]) | resistance found with modular kit (K. pneumoniae [7]; [17]) | resistance found with modular kit (Proteus mirabilis; [18]) | resistance found with modular kit (Proteus mirabilis; [19]) | resistance found with modular kit (Proteus mirabilis; [20]) | also measured |
| --- | --- | --- | --- | --- | --- | --- | --- | --- | --- | --- | --- | --- | --- | --- | --- | --- | --- | --- | --- | --- | --- |
| CC1(C)S[C@@H]2[C@H](NC(=O)[C@H](N)c3ccccc3)C(=O)N2[C@H]1C(=O)O [Amp, Ampicillin] | R | S | R | S | R | S | R | R | R | R | R | R | R | R | R | R | R | R | R | R | resistance profile predicted by ART (Citr. koseri): R; resistance profile predicted by ART (E. faecalis): S; resistance profile predicted by ART (K. oxytoca; 1 sample (r15)): R; resistance profile predicted by ART (K. oxytoca; 3 samples (r14)): R; resistance profile predicted by ART (K. pneumoniae [2]; 1 sample (r12)): R; resistance profile predicted by ART (K. pneumoniae [2]; 8 samples (r11)): R; resistance profile predicted by ART (K. pneumoniae [2]; 11 samples (r10), MDR): R; resistance profile predicted by ART (Morg. morganii [3]; 1 sample (r22)): R; resistance profile predicted by ART (Morg. morganii [3]; 1 sample (r23)): R; resistance profile predicted by ART (Prot. mirabilis [4]; 1 sample (r18)): R; resistance profile predicted by ART (Prot. mirabilis [4]; 1 sample (r19)): R; resistance profile predicted by ART (Prot. mirabilis [4]; 1 sample (r20)): R; resistance profile predicted by ART (Prot. mirabilis [4]; 6 samples (r17)): R; resistance profile predicted by ART (Staphylococcus sp.; 1 sample (r31)): R; resistance profile predicted by ART (Staphylococcus sp.; 1 sample (r32)): S; resistance profile predicted by ART (Str. agalactiae): S; CLP result differing from ART (in brackets) (Prot. mirabilis [5]): S; resistance found with modular kit (E. coli [6]; E. coli, profile r7): S; resistance found with modular kit (E. coli [6]; E. coli, profile r8): R; resistance found with modular kit (E. coli [6]; E. coli, profile r13): R |
| CC(C)(O/N=C(\C(=O)N[C@@H]1C(=O)N2C(C(=O)[O-])=C(C[n+]3ccccc3)CS[C@H]12)c1csc(N)n1)C(=O)O [Caz, Ceftazidime] | R | S | S | S | R | S | S | S | S | S | R | R | R | R | R | R | S | R | R | S | resistance profile predicted by ART (Citr. koseri): S; resistance profile predicted by ART (E. faecalis): S[nd]; resistance profile predicted by ART (K. oxytoca; 1 sample (r15)): S; resistance profile predicted by ART (K. oxytoca; 3 samples (r14)): S; resistance profile predicted by ART (K. pneumoniae [2]; 1 sample (r12)): S; resistance profile predicted by ART (K. pneumoniae [2]; 8 samples (r11)): S; resistance profile predicted by ART (K. pneumoniae [2]; 11 samples (r10), MDR): R; resistance profile predicted by ART (Morg. morganii [3]; 1 sample (r22)): S; resistance profile predicted by ART (Morg. morganii [3]; 1 sample (r23)): S; resistance profile predicted by ART (Prot. mirabilis [4]; 1 sample (r18)): S; resistance profile predicted by ART (Prot. mirabilis [4]; 1 sample (r19)): S; resistance profile predicted by ART (Prot. mirabilis [4]; 1 sample (r20)): R; resistance profile predicted by ART (Prot. mirabilis [4]; 6 samples (r17)): S; resistance profile predicted by ART (Staphylococcus sp.; 1 sample (r31)): S; resistance profile predicted by ART (Staphylococcus sp.; 1 sample (r32)): S; resistance profile predicted by ART (Str. agalactiae): S[nd]; CLP result differing from kit (in brackets) (K. pneumoniae [8]): S; CLP result differing from ART (in brackets) (Morg. morganii [9]): R |
| augmentin [AMC] |  |  |  |  | R | S | R | I | I | I | R | R | I | R | R | R | S | I | S | R | CLP result differing from kit (in brackets) (E. coli [10]): S; resistance found with modular kit (E. coli [6]; E. coli, profile r7): S; resistance found with modular kit (E. coli [6]; E. coli, profile r8): S; resistance found with modular kit (E. coli [6]; E. coli, profile r13): R; hydrolysis by the tested specimen (decolorization) [11]: hydrolysis |

— patent publication US20110245105A1, “Methods and Kits for Direct Detection and Susceptibility Profiling of Beta-Lactam Resistant Bacteria” (YISSUM RESEARCH DEVELOPMENT COMPANY OF THE HEBREW …, priority 2008, published 2011)
